Assay results as given in patent publication US5766896A, “Method of producing iodine by use of a copper containing oxidase enzyme” (Novo Nordisk Biotech Inc., priority 1994, dated 1998).
Like-named read-outs stand apart in the source and are kept apart here.

Columns and labels:
Myceliophthora laccase = Myceliophthora laccase (Thermothelomyces thermophilus, UniProt G2QG31); test: chloride inhibition of Myceliophthora laccase; type: biochemical; conditions: read-out: inhibition constant (chloride)
tyrosinase (mushroom) [1] = test: tyrosinase-catalyzed I^- oxidation; type: biochemical; conditions: optimal pH of 2.7
Method: (§1) Enzymatic assays for determining oxidation of I^- are conducted in B & R buffer containing from 1-20 nM MtL (subunit concentration) and 10 to 200 mM Nal at 20° C. for 5-10 minutes. The extinction coefficient of 26 mM^-1 cm^-1 is used to calculate rate. Oxidation of I^- is spectrally monitored at 340 or 353 nm and the spectrum of the oxidation product is found identical to that of I3 -(Hosoya, Biochem. (Tokyo) 53: 381, 1963). Kinetic parameters are extracted by a non-linear regression fitting (Prism, GraphPad) of rate and concentration data to the equation of rate=Vmax *[substrate]/Km +[substrate].
(§2) Ascorbate oxidase, ceruloplasmin, bilirubin oxidase, and tyrosinase at concentrations up to μM level are also tested under similar conditions for I^- oxidation catalysis.

[2] = target: T1, bilirubin oxidase (Myrothecium verrucaria) (Albifimbria verrucaria, UniProt Q12737); test: bilirubin oxidase-catalyzed I^- oxidation; type: biochemical; conditions: optimal pH of 4.1
T1 construct: purchased Sigma
T1 sequence (Q12737 39-572): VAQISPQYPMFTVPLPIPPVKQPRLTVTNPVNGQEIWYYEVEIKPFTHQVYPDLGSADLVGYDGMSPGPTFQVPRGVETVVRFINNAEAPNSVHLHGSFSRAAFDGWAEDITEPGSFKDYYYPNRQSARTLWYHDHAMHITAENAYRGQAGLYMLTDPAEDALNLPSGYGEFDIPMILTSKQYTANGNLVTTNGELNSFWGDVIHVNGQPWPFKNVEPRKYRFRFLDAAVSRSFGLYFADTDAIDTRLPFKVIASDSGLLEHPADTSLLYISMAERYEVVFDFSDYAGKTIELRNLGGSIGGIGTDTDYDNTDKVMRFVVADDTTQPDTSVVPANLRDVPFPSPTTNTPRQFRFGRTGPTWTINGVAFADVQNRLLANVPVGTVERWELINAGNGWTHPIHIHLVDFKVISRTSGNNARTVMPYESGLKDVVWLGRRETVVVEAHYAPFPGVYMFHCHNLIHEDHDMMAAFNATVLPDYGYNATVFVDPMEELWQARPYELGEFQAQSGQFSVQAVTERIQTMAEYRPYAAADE
Method: as §1, §2

[3] = target: T2, recombinant Myceliophthora thermophila laccase (r-MtL) (Thermothelomyces thermophilus, UniProt G2QG31); test: r-MtL-catalyzed I^- oxidation; type: biochemical; conditions: pH 3.4
T2 sequence (G2QG31 48-602): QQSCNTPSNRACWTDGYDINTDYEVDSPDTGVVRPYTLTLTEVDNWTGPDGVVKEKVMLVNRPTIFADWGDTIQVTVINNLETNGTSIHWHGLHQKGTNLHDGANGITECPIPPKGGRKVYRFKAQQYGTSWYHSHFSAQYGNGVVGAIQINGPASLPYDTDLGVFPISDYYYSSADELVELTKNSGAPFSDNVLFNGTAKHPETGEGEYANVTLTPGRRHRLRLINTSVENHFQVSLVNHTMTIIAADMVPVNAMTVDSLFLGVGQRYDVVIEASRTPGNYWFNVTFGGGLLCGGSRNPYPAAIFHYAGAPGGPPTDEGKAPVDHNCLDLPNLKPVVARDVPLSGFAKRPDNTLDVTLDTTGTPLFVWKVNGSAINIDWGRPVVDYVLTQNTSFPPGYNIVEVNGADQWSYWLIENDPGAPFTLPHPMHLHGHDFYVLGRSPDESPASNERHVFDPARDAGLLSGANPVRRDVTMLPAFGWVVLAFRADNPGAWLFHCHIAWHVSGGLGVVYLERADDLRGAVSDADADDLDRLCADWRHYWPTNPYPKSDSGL
Method: as §1

[4] = target: T2, recombinant Myceliophthora thermophila laccase (r-MtL); test: r-MtL-catalyzed ABTS oxidation; type: biochemical
Method: as §1

tyrosinase (mushroom) [5] = conditions: pH 2.7
Source text: Chemicals used as buffers and substrates are commercial products of at least reagent grade. Ascorbate oxidase (Cucurbita species), ceruloplasmin (porcine plasma), bilirubin oxidase (Myrothecium verrucaria) and tyrosinase (mushroom) are purchased from Sigma and used as received. The contents of the enzymes in lyophilized powder or solution are confirmed by uv-visible absorption and published extinction coefficients. The stated activity of ascorbate oxidase is confirmed with ascorbic acid.
The extinction coefficient of 36 mM^-1 cm^-1 is used to calculate the rate. Spectroscopic assays are conducted on either a spectrophotometer (Shimadzu UV160) or a microplate reader (Molecular Devices). Britton & Robinson (B & R) buffers are prepared according to a standard protocol (Quelle, Biochemisches Taschenbuch, H. M. Raven, II. Teil, S.93 u. 102, 1964).

## Cl [chloride]
Myceliophthora laccase
  Ki: ~70 mM

## I [I^-, iodide]
Tyrosinase (mushroom) [1]
  Km: ~100 mM
  Vmax (I^- oxidation): ca. 0.1 turnover per minute
[2]
  Vmax (I^- oxidation): 1.7±0.1 turnover per minute
[3]
  Vmax (I^- oxidation): 2.7±0.2 turnover per minute

## CCn1c(=NN=c2sc3cc(S(=O)(=O)O)ccc3n2CC)sc2cc(S(=O)(=O)O)ccc21 [ABTS, 2,2'-azinobis-(3-ethylbenzthiazoline-6-sulfonic acid)]
[4]
  Km of ABTS, fold smaller in comparison with I^-: ~ 10^3 fold
  Vmax of ABTS, fold larger in comparison with I^-: ~ 10^3 fold
Tyrosinase (mushroom) [5]
  Vmax (ABTS oxidation): 3.1±0.1 turnover per minute
Tyrosinase (mushroom) [5]; read-out: Km (ABTS)
  Km: 0.18 ± 0.01 mM
